Like-named read-outs stand apart in the source and are kept apart here.

The subject of data set [1] is ALS patients. Briefly: Fasudil treatment of patients with disease onset at least 24 months prior to treatment. It counts as in vivo, human. An excerpt: This could not have been predicted from the trials with edaravone, above. […] (Liu 2016). The invention is based on the surprising discovery that orally-administered fasudil can treat ALS patients with disease onset of about two years or more prior treatment. These patients include but are not limited to patients with more advanced disease, but also includes slow-progressing patients.

Data set [2] has as its system ALS disease onset of between 3 and 36 months. The conditions noted are these: 30 mg, twice a day, 6-month study; cited from earlier work.
In data set [3] the test system is human ALS patients. The conditions noted are these: 30 mg intravenously twice daily over 20 consecutive working days; cited from earlier work.
For data set [4] the following is noted: in vivo, 1-hydroxy (M3) metabolite; cited from earlier work.
The subject of data set [5] is ALS patients. The conditions noted are these: patients diagnosed two years or less; cited from earlier work.
The test system of data set [6] is ALS patients. The conditions noted are these: enrollment of three years or less; cited from earlier work.
The subject of data set [7] is severe ALS patients. The conditions noted are these: disease onset of less than three years; cited from earlier work.

As for `Cl.O=S(=O)(c1cccc2cnccc12)N1CCCNCC1` [Fasudil, Hexahydro-1-(5-isoquinolinesulfonyl)-1H-1,4-diazepine monohydrochloride hemihydrate], the benefit from treatment result in data set [1] is on record as “benefitted”. Besides, the disease modification result in data set [2] is “did not result in any disease modification”. Besides, in data set [3], the “outcome of compassionate use” value is “no conclusive results beyond safety”.

Consider `O=S(=O)(c1cccc2c(O)nccc12)N1CCCNCC1` [M3, hydroxyfasudil], for which the half-life entry in data set [4] is given as “about 8 hours”.

Take `CC1=NN(c2ccccc2)C(=O)C1` [edaravone]: the values for the primary endpoint entry in data set [5] and in data set [6] were “met the primary endpoint” and “did not meet the primary endpoint”, respectively. Besides, in data set [7], the “treatment effect between placebo and edaravone” value was “failed to demonstrate any treatment effect”.
